Results on one compound are retold here after patent publication US12234257B2, “Triterpene saponin derivative and use thereof” (KOREA INSTITUTE OF SCIENCE AND TECHNOLOGY, priority 2020, dated 2025).

The assay relates to autophagy-related protein markers (LC3-II, p62, p-AMPK, p-Erk, p-ULK, p-mTOR) in SH-SY5Y cells. As to the kind of experiment: Western blot of autophagy-related protein markers in SH-SY5Y cells. The format is cell-based, human. As to the method: Human neuroblastoma (SH-SY5Y) cells were purchased from the American Type Culture Collection (Manassas, Va., USA) and cultured in DMEM supplemented with 10% heat-inactivated FBS and 1% penicillin/streptomycin. The SH-SY5Y cells were cultured at 37° C. in a humid atmosphere containing 5% CO2. […] The SH-SY5Y cells were transfected with AMPK siRNA and then administered with AKNS-2 at 36 hours after siRNA transfection. […] After 24 hours from treatment with the samples, the SH-SY5Y cells were recovered and used for subsequent analysis. At 24 hours after drug treatment, the culture medium was removed from the 6-well plate, and the cells were gently washed once with cold saline. Subsequently, 1 mL of cold saline was added to each well, and cells attached to the bottom were floated by rubbing the bottom with a 1 mL pipette. The suspension was collected in a 1.5 mL tube and centrifuged at 4° C. at 13000×g for 5 minutes. After removing a supernatant, 50 μL of a RIPA lysis buffer including a protease inhibitor cocktail (Roche, Mannheim, Germany) and purchased from Cell Signaling Technology (Danvers, Mass., USA) was added to the cell pellet. After shaking the mixture at 4° C. for 30 minutes, the obtained cells were centrifuged at 4° C. at 13000×g for 20 minutes. A supernatant was collected therefrom, and a concentration of proteins was measured using a standard curve constructed using BSA by the Bradford method. Then, the supernatant was diluted with a loading buffer and heated at 99° C. for 5 minutes. Resultant cells were used in a subsequent western blot analysis. Protein markers contained in lysates of the SH-SY5Y cells and brain tissue of the mice (SNpc and ST) were measured by western blot analysis. Briefly, after determining a concentration, a protein sample (20 μg) was separated by 8%, 10%, or 15% sodium dodecyl sulfate-polyacrylamide gel electrophoresis (SDS-PAGE). Then, proteins separated on the gel were transferred to a polyvinylidene fluoride (PVDF) membrane for 45 minutes using a Trans-Blot Turbo Transfer System (Bio-Rad, USA). […] The membrane was further incubated with monoclonal primary antibodies derived from rabbits (anti-GAPDH, anti-AMPK, anti-p-AMPK, anti-ULK, anti-p-ULK555, anti-Erk, anti-p-Erk, anti-mTOR, anti-p-mTOR, anti-LC3B, anti-TH, and anti-α-synuclein antibodies). The primary antibodies were diluted in a blocking buffer at a ratio of 1:1000 and incubated overnight at 4° C. On the second day, the membrane was washed with TBST three times (10 minutes each) and incubated at room temperature in a horseradish peroxidase-conjugated goat anti-rabbit IgG secondary antibody (diluted in a blocking buffer at a ratio of 1:2000). After incubating in the secondary antibody for 1 hour, the membrane was washed for 30 minutes. The protein blots on the membrane were developed using an ECL detection kit and visualized using an LAS-4000 mini system (Fujifilm, Japan). The intensity of the protein blots was quantified using Multi Gauge software (Fujifilm, Japan).
(In general: In western blotting, separated proteins are transferred to a membrane and probed.)

Where [1] appears, read: AKNS-2 5 μM and 10 μM, vs control.

In the case of `C[C@@H]1O[C@@H](O[C@@H]2[C@@H](O)[C@H](O[C@@H]3[C@@H](O[C@@H]4OC[C@@H](O)[C@H](O)[C@H]4O)[C@@H](O)[C@H](O[C@H]4[C@H](OC(=O)[C@]56CCC(C)(C)C[C@H]5C5=CC[C@@H]7[C@@]8(C)C[C@H](O)[C@H](O[C@@H]9O[C@H](CO)[C@@H](O)[C@H](O[C@@H]%10OC[C@@H](O)[C@H](O)[C@H]%10O)[C@H]9O)[C@@](C)(CO)[C@@H]8CC[C@@]7(C)[C@]5(C)C[C@H]6O)OC[C@H](O)[C@@H]4O)O[C@H]3C)OC[C@H]2O)[C@H](O)[C@H](O)[C@H]1O` [Compound 1, 3-O-β-D-xylopyranosyl-(1→3)-β-D-glucopyranosylpolygalacic acid 28-O-α-L-rhamnopyranosyl-(1→3)-β-D-xylopyranosyl-(1→4)-[β-D-xylopyranosyl-(1→3)]-α-L-rhamnopyranosyl-(1→2)-α-L-arabinopyranosyl ester], where the note is “24 hours, 10 μM and 20 μM”, the “expression level of p-Erk” value is “the expression level of p-Erk significantly increased” and the “expression of p-mTOR” value is “The expression of p-mTOR was inhibited”. For the same compound, under “24 hours, 5, 10 and 20 μM”, the “expression level of p-AMPK” value was “the expression levels of p-AMPK and p-ULK significantly increased”; the “expression level of p-ULK” value is “the expression levels of p-AMPK and p-ULK significantly increased”; the “expression of LC3-II” value is on record as “induced the expression of LC3-II, which is an important autophagy marker, in a dose-dependent manner”. For the same compound, the “expression level of LC3-II” value (AKNS-2 5 μM and 10 μM, 24 hours, vs control) was “The expression level of LC3-II was significantly increased”. In addition, under setting [1], the “expression level of p-Erk” value is “significantly increased expression levels of p-Erk”, the “expression of p-AMPK” value is listed as “Significantly increased expression” and the “expression of p-ULK555” value is “significantly increased expression of p-ULK555”. Further, for the setting “AKNS-2 10 μM alone”, the “expression level of LC3-II” value was “significantly increased the expression level of LC3-II” and the “expression of p62” value is “induced a significant decrease in expression of p62”. Further, the “expression of p-mTOR” value (AKNS-2 10 μM, vs control) is given as “significantly inhibited the expression p-mTOR”. Besides, the “expression of p-mTOR” value (AKNS-2 (5 μM and 10 μM), AMPK siRNA experiment, normal cells) is given as “significantly inhibited the expression of p-mTOR”.
